# Reference: patent US10414778B2, “Methods for treatment of resistant cancer” (New Mexico Tech University Research Park Corporation, priority 2016, dated 2019)
# Read-outs that look alike come from different tables or passages of the source.
# Experiments:
# [1] = system: MES-SA cells; experiment: MTT growth inhibition, MES-SA uterine sarcoma; assay type: cell-based; conditions: Homo sapiens, MES-SA, MTT
# Procedure: (§1) Human cancer cell lines were obtained from the American Type Culture Collection (ATCC, Manassas, Va., USA), the European Collection of Cell Culture (ECACC, Salisbury, UK), and the Deutsche Sammlung von Mikroorganismen und Zellkulturen (DSMZ, Braunschweig, Germany). Human cervical adenocarcinoma HeLa cells were cultured in DMEM supplemented with 10% fetal bovine serum (FBS). Human mammary carcinoma MCF-7 cells were cultured in RPMI supplemented with 10% FBS. The U87 cells (ATCC HTB-14) were cultured in DMEM culture medium, while the A549 cells (DSMZ ACC107) were cultured in RPMI culture medium supplemented with 10% heat-inactivated FBS. The GBM Hs683 (ATCC HTB-138) and the T98G (ATCC CRL-1690) cell lines were cultivated in DMEM supplemented with 10% FBS. The GBM U251 cells (ECACC code 09063001) were cultured in 10% MEM. The human uterine sarcoma MES-SA and MES-SA/Dx5 cells were cultured in RPMI-1640 medium supplemented with 10% FBS with MES SA/Dx5 maintained in the presence of 500 nM Doxorubicin (Sigma™). The U373 glioblastoma cells (ECACC 08061901) were cultured in RPMI culture medium supplemented with 10% heat-inactivated FBS.
# All compounds were dissolved in DMSO at a concentration of either 100 mM or 50 mM prior to cell treatment. The cells were trypsinized and seeded at various cell concentrations depending on the cell type. The cells were grown for 24 h to 72 h, treated with compounds at concentrations ranging from 0.001 to 100 μM, and incubated for 48, 72, or 96 h in 100 or 200 μL media depending on the cell line used. Cells treated with 0.1% DMSO were used as a negative control, and cells treated with 1 μM phenyl arsine oxide (PAO) were used as a positive control. […]
# Drug-resistant cell lines (i.e., glioma: Hs683, U373, U251, U87, T98G; lung cancer: A549, H2073; uterine carcinoma: MES-SA/Dx5) were complemented with drug-sensitive cell lines, H1993 lung cancer and MES-SA uterine cancer, which were used as controls. […] The GI50 values were calculated after 48-96 hours of treatment with the indicated compounds in replicate using the MTT growth assay.
# [2] = system: HeLa cells; experiment: MTT in vitro growth inhibition assay, HeLa; assay type: cell-based, human; conditions: Homo sapiens, HeLa, two independent experiments
# Procedure: as §1
# (§2) Spirodienones 4a-m were subjected to in vitro growth inhibition 3-(4,5-dimethylthiazol-2-yl)-2,5-diphenyltetrazolium bromide (MTT) assays against two cell lines, human HeLa cervical and MCF-7 breast adenocarcinomas.
# (§3) All compounds were dissolved in DMSO at a concentration of either 100 mM or 50 mM prior to cell treatment. The cells were trypsinized and seeded at various cell concentrations depending on the cell type. The cells were grown for 24 h to 72 h, treated with compounds at concentrations ranging from 0.001 to 100 μM, and incubated for 48, 72, or 96 h in 100 or 200 μL media depending on the cell line used. Cells treated with 0.1% DMSO were used as a negative control, and cells treated with 1 μM phenyl arsine oxide (PAO) were used as a positive control.
# (§4) To determine the activities of the compounds of the invention toward cancer cells, cell lines treated with different compounds were subjected to an in vitro MTT growth assay using human cervical cancer (HeLa) and human adenocarcinoma (MCF-7) cell lines. The MTT growth assay is a colorimetric assay that measures the metabolic activity of cells via reduction of 3-(4,5-dimethylthiazol-2-yl)-2,5-diphenyltetrazolium bromide (MTT). The reduction of MTT occurs in metabolically-active cells and is characterized by a purple color, which can be quantified via spectrophotometry. A higher absorbance reading indicates a metabolically-active cell, while a low absorbance reading indicates low metabolic activity due to, for example, inhibition of cellular proliferation or cell death.
# (§5) The values in TABLE 4 are the mean and standard deviation calculated from two independent experiments, which were performed in 4 replicates.
# [3] = system: MCF-7 cells; experiment: MTT in vitro growth inhibition assay, MCF-7; assay type: cell-based, human; conditions: Homo sapiens, two independent experiments
# Procedure: as §1, §2, §3, §4, §5
# [4] = system: U373 glioblastoma cells; experiment: MTT growth inhibition, U373 glioma; assay type: cell-based, human; conditions: Homo sapiens, U373 MG
# Procedure: as §1, §3
# (§6) Compound 4l was evaluated for in vitro growth inhibition against a panel of cancer cell lines, including U373, U251, U87, T98G, human GBM, and A549 NSCLC. […] Compound 4l was also evaluated for in vitro growth inhibition against the apoptosis-sensitive tumor model Hs683 anaplastic oligodendroglioma as a reference.
# (§7) Due to their high potencies, compounds 5l and 5g were used to determine the effects of the compounds on drug-resistant tumor cells. Drug-resistant cell lines (i.e., glioma: Hs683, U373, U251, U87, T98G; lung cancer: A549, H2073; uterine carcinoma: MES-SA/Dx5) were complemented with drug-sensitive cell lines, H1993 lung cancer and MES-SA uterine cancer, which were used as controls. Bulbispermine and paclitaxel were also used as controls. The GI50 values were calculated after 48-96 hours of treatment with the indicated compounds in replicate using the MTT growth assay.
# [5] = system: five GBM cell cultures (U373, T98G, U251, Hs683, U87); experiment: MTT growth curves of five GBM cell cultures (populations resistant to proapoptotic agents); assay type: cell-based, human
# Description: Cells resistant to various pro-apoptotic stimuli often contain a sensitive population that quickly response to pro-apoptotic agents. However, a significant portion of the cells in a culture resist the effects of pro-apoptotic agents even at concentrations 100- or 1000-fold their GI50 values.
# [6] = system: Hs683 cells; experiment: MTT growth inhibition, Hs683 glioma; assay type: cell-based, human; conditions: Homo sapiens
# Procedure: as §1, §3, §6, §7
# [7] = system: H2073 cells; experiment: MTT growth inhibition, H2073 drug-resistant NSCLC; assay type: cell-based, human; conditions: for decrease in potency toward H2073 cells relative to H1993 cells: H2073 versus H1993; for GI50: Homo sapiens, NCI-H2073, MTT
# Procedure: NSCLC cell lines H1993 and H2073 were obtained from the Hamon Center for Therapeutic Oncology Research at UT Southwestern Medical Center and cultured in RPMI-1640 medium (Mediatech, VA, USA) supplemented with 5% heat-inactivated FBS (Mediatech™), 100 units/mL penicillin and 0.1 mg/mL streptomycin (Sigma™). All cell lines were cultured in T25 flasks, maintained, and grown at 37° C., 95% humidity, 5% CO2.
# as §3
# Spirodienone 4l was evaluated against patient-derived NSCLC cell line H1993 and its drug-resistant variant, H2073. The patient-derived NSCLC cell line […] was obtained from a regrown tumor at a primary site after a patient relapsed several months later.
# as §7
# Compound 5l was further tested to determine the effect of compounds of the invention on drug-resistant tumor cells. A patient-derived non-small cell lung cancer (NSCLC) line, H1993, and the drug-resistant variant of H1993, H2073, were used for testing. The H1993 cell line was obtained from a lymph node metastasis isolated from the patient prior to chemotherapy. The H2073 cell line was derived from a regrown tumor at the primary site after the patient had relapsed several months after administration of the chemotherapy regimen.
Structure (SMILES),"GI50 ([1]; Table 3, 48-96 h treatment, read-out: GI50 in vitro values, uterine sarcoma MES-SA) [µM]","GI50 ([2]; 48 h treatment, ± SD, read-out: cell viability GI50, HeLa) [µM]","GI50 ([3]; MCF7, MCF-7, 48 h treatment, ± SD, read-out: cell viability GI50, MCF-7) [µM]","GI50 ([4]; Table 3, 48-96 h treatment, read-out: GI50 in vitro values, glioma U373) [µM]","resistant populations in growth curves of GBM cell cultures ([5]; 5 GBM cell lines, FIG. 1, one experiment in six replicates)","GI50 ([6]; Hs 683, Table 3, 48-96 h treatment, read-out: GI50 in vitro values, glioma Hs683) [µM]",decrease in potency toward H2073 cells relative to H1993 cells [7],"GI50 ([7]; Table 3, 48-96 h treatment, read-out: GI50 in vitro values, lung cancer H2073) [µM]","GI50 ([1]; Table 5, 48-96 hours of treatment, read-out: GI50, Sarcoma MES-SA) [µM]","GI50 ([2]; Table 4, 48-hour treatment, mean and standard deviation, read-out: HeLa Cell Viability GI50) [µM]","GI50 ([3]; MCF7, Table 4, 48-hour treatment, mean and standard deviation, read-out: MCF-7 Cell Viability GI50) [µM]","GI50 ([4]; Table 5, 48-96 hours of treatment, read-out: GI50, Glioma U373) [µM]","dose-dependent effects against cell populations resistant to proapoptotic agents ([5]; U373, T98G, U251, Hs683, U87, MTT, FIG. 8)","GI50 ([6]; Hs 683, Table 5, 48-96 hours of treatment, read-out: GI50, Glioma Hs683) [µM]","GI50 ([7]; Table 5, 48-96 hours of treatment, read-out: GI50, Lung Cancer H2073) [µM]"
O=C1C=CC2(C=C1)CCN(C(=O)C(F)(F)F)Cc1c2sc2ccccc12 [Compound 4l],5,10,7 ± 1,7,absence of such resistant populations,5,significantly less pronounced than that observed with paclitaxel,50,–,–,–,–,–,–,–
O=C1C=C[C@]23CC[N@](Cc4c2sc2ccccc42)[C@H]3C1 [Compound 5l],–,–,–,–,–,–,less drastic,–,2,6.2 ± 1.13,4.7 ± 0.1,7,dose-dependent effects,6,11
